# From ChEMBL document CHEMBL5465560, “Selectivity Literature for EUbOPEN Chemogenomic Library” (2024)
# Legend:
# [1] = molecular target: CDK4/Cyclin D3 (Homo sapiens) (UniProt P11802+P30281); assay: (§1) Selectivity interaction (KinomeScan (DiscoverX)) EUB0000229b CDK4; assay type: protein-complex assay; conditions: at 10 µM
# [2] = molecular target: Cyclin-dependent kinase 4/cyclin D1 (Homo sapiens) (UniProt P11802+P24385); assay: as §1; assay type: protein-complex assay; conditions: at 10 µM
# [3] = molecular target: Serine/threonine-protein kinase Nek4 (Homo sapiens) (UniProt P51957); assay: Selectivity interaction (KinomeScan (DiscoverX)) EUB0000045b NEK4
# [4] = molecular target: T1, MAP kinase-activated protein kinase 5 (Homo sapiens) (UniProt Q8IW41); assay: Selectivity interaction (KinomeScan (DiscoverX)) EUB0000695a MAPKAPK5; conditions: at 100 nM
# T1 sequence (whole entry): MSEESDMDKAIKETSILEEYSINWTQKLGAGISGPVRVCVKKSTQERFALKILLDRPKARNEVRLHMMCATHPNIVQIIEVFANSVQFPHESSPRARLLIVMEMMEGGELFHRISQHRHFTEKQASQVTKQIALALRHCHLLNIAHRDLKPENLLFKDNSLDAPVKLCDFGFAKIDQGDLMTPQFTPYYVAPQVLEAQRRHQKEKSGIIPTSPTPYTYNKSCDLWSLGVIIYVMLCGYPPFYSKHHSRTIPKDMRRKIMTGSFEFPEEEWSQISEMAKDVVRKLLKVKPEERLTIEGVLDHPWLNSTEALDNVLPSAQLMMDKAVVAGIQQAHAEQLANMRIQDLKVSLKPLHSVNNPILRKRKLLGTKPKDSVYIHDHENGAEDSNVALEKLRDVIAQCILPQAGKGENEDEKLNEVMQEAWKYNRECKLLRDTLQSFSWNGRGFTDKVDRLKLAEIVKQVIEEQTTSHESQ
# [5] = molecular target: T2, Mitogen-activated protein kinase 12 (Homo sapiens) (UniProt P53778); assay: Selectivity interaction (KinomeScan (DiscoverX)) EUB0001079a MAPK12; conditions: at 1 µM
# T2 sequence (whole entry): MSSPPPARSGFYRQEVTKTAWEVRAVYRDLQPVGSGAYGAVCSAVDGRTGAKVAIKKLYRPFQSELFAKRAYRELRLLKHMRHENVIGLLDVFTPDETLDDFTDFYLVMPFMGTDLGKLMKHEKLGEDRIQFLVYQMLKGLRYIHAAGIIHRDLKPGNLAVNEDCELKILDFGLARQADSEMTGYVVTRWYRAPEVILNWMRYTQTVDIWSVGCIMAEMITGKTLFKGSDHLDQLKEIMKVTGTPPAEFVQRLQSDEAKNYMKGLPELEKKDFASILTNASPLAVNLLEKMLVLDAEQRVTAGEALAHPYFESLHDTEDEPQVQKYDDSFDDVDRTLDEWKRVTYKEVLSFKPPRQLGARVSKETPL
# [6] = molecular target: T3, Serine/threonine-protein kinase tousled-like 1 (Homo sapiens) (UniProt Q9UKI8); assay: Selectivity interaction (LanthaScreen Eu Kinase Binding Assay) EUB0001632a TLK1; conditions: at 10 µM
# T3 sequence (whole entry): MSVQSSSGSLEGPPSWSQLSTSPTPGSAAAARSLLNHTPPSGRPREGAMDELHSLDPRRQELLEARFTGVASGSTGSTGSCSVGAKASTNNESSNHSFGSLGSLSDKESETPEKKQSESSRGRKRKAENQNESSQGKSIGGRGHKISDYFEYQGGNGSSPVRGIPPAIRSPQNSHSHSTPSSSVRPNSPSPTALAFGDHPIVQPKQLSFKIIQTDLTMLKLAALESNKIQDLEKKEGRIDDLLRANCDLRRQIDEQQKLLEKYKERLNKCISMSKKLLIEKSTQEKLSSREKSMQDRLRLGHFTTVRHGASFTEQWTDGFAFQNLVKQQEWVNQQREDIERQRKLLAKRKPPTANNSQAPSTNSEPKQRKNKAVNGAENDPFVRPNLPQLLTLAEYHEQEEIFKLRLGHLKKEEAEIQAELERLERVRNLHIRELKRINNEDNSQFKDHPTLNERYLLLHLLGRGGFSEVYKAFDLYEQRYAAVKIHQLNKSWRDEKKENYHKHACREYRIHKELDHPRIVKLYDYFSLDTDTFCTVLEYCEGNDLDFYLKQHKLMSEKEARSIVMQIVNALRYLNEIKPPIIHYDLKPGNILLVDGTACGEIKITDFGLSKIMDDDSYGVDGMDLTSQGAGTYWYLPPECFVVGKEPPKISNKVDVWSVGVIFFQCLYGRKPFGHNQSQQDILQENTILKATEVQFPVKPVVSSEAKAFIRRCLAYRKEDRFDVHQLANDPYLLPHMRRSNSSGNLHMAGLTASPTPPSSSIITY
# [7] = molecular target: T4, Inhibitor of nuclear factor kappa-B kinase subunit alpha (Homo sapiens) (UniProt O15111); assay: Selectivity interaction (ProQinase) EUB0000171b CHUK
# T4 sequence (whole entry): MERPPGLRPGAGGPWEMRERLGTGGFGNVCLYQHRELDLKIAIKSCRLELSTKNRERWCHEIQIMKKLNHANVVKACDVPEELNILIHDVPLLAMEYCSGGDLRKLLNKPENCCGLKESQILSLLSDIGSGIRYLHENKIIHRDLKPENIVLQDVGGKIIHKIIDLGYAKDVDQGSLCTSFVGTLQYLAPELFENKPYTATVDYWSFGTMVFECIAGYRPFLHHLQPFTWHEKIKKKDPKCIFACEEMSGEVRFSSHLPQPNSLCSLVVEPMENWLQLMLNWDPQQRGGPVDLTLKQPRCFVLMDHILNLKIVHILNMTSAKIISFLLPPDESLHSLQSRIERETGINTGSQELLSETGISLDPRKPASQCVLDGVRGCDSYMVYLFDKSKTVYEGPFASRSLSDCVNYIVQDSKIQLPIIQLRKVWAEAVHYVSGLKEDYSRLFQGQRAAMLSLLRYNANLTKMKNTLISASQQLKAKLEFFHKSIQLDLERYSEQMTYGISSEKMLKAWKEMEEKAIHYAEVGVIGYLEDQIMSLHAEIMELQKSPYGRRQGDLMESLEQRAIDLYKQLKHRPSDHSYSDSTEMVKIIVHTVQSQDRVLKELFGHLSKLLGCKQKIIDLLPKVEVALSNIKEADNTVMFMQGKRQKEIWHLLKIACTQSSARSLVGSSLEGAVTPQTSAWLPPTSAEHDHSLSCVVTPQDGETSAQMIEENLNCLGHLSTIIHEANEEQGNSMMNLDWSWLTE
# [8] = molecular target: Tyrosine-protein kinase Fer (Homo sapiens) (UniProt P16591); assay: Selectivity interaction (ActivX KiNativ screen (ex vivo kinase selectivity in human PBMCs)) EUB0001619a FER; assay type: cell-based; conditions: PBMC, at 1 µM
# SRSF protein kinase 1 = SRSF protein kinase 1 (Homo sapiens, UniProt Q96SB4); assay: Selectivity interaction (KinomeScan (DiscoverX)) EUB0001619a SRPK1; conditions: at 1 µM
# Aurora kinase B = Aurora kinase B (Homo sapiens, UniProt Q96GD4); assay: Selectivity interaction (ActivX KiNativ screen (kinase selectivity in THP-1 cell lysates)) EUB0000639a AURKB; assay type: subcellular; conditions: lysate, at 1 µM
# Sequence of Aurora kinase B (Q96GD4 whole entry): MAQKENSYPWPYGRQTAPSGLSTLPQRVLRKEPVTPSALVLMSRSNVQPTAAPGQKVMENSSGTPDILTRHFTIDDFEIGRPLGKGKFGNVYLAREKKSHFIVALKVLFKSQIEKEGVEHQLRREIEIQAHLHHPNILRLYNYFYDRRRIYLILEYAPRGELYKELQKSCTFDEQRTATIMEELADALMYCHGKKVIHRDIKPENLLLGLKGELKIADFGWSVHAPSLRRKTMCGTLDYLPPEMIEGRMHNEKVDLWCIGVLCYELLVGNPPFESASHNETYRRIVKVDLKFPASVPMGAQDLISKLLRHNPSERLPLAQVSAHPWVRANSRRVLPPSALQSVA
# Sequence of Serine/threonine-protein kinase Nek4 (Homo sapiens) (P51957 whole entry, looked up): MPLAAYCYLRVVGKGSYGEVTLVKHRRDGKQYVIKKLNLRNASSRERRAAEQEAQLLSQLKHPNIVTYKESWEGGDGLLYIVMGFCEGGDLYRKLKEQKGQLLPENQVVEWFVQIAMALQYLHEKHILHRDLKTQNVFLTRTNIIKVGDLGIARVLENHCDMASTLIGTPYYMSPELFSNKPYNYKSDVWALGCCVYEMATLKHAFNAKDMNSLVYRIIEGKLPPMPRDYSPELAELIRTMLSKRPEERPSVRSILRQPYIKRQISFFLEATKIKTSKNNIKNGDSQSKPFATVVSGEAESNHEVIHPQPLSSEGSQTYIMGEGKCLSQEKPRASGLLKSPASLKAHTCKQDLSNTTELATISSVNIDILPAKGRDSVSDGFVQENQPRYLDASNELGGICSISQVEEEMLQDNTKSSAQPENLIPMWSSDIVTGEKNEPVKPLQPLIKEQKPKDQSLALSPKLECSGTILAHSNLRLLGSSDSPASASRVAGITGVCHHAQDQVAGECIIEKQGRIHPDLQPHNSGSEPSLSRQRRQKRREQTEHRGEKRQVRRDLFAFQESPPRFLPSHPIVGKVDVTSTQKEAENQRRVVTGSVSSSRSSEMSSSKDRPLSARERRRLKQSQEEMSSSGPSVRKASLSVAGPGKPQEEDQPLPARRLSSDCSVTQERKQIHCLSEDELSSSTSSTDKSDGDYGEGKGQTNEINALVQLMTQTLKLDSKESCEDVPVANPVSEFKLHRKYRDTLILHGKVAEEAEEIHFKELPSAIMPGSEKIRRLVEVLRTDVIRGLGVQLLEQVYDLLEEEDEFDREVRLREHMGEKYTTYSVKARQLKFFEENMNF
# Sequence of Tyrosine-protein kinase Fer (Homo sapiens) (P16591 whole entry, looked up): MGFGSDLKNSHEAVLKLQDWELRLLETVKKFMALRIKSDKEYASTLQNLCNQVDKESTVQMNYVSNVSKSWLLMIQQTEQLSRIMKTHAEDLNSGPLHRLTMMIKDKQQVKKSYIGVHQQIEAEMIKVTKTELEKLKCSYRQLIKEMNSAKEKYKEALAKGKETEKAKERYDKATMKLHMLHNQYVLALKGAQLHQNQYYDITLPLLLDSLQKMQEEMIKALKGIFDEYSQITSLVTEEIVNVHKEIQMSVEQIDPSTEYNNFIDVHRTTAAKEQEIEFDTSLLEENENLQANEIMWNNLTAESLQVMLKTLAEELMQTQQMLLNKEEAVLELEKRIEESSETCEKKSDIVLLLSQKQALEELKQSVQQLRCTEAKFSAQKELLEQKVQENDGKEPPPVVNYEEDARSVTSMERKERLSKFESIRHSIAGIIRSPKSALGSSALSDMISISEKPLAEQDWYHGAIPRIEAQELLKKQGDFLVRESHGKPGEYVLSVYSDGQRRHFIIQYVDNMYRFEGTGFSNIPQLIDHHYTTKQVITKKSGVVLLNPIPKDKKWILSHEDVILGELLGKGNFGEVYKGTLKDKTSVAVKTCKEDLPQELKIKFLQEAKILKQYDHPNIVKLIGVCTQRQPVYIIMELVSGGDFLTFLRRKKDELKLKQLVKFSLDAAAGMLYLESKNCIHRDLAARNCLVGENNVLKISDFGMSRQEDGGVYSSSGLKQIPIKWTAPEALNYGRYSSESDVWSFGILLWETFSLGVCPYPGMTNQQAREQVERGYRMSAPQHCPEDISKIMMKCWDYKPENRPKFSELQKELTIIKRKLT
# Sequence of SRSF protein kinase 1 (Q96SB4 whole entry): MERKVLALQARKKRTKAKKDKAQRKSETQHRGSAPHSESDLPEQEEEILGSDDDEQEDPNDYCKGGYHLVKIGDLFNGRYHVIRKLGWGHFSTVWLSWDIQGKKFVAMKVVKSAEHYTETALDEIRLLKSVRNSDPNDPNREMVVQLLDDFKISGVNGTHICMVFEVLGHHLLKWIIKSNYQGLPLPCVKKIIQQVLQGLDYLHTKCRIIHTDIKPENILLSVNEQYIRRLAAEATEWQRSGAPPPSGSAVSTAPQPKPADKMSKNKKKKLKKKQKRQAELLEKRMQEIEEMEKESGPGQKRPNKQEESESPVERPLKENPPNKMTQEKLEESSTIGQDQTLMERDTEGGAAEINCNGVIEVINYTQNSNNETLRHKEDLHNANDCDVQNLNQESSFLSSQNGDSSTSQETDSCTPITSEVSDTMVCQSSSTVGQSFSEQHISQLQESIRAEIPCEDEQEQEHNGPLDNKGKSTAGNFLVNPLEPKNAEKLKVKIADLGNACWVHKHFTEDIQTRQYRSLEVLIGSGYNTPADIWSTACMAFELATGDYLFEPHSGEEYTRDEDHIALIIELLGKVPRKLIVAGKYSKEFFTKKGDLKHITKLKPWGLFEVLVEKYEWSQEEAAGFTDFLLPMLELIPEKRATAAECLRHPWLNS
compound,measurement,setting,value
COc1cc(N(C)c2ccnc3ccc(C(F)(F)F)cc23)cc(OC)c1OC,% binding,[1],94%
same,% binding,[2],99%
C=CC(=O)Nc1cc(-n2c(=O)ccc3cnc4ccc(-c5ccc(NS(C)(=O)=O)cc5)cc4c32)ccc1C,% of control,[3]; at 1 µM,81%
same,% of control,[3]; at 10 µM,100%
Cc1cc(F)c(C(=O)Nc2cccc(-c3nncn3C(C)C)n2)cc1-n1cnc(C2CC2)c1,% of control,[4],76%
Nc1cnc(N2CCc3cc(S(=O)(=O)Nc4c(F)cc(Cl)cc4F)cc(N4CCCC4=O)c32)nc1 [TP-020n],% of control,[5],100%
Cn1cc(-n2cnc3c(NCc4nc5cc(Cl)c(Cl)cc5[nH]4)nc(N4CCOCC4)nc32)cn1,% of inhibition,[6],5.47%
C=CC(=O)Nc1cccc(C(=O)Nc2ccc(Nc3cc(-c4[nH]c(SC)nc4C)ccn3)cc2)c1,% of control,[7]; at 1 µM,78%
same,% of control,[7]; at 5 µM,57%
N#Cc1cccc(-c2c[nH]c3ncnc(N4CCOCC4)c23)c1,% of inhibition,[8],2%
same,% of control,SRSF protein kinase 1,25%
CC[C@@H]1[C@H](F)C(=O)N[C@@H]1COc1nccc2cc(C(N)=O)c(OC)cc12 [ZIMLOVISERTIB],% of inhibition,Aurora kinase B,20%
